{"source": "PubChem BioAssay (NCI)", "assay_in_all_cases": "inhibition of tumour cell growth, NCI panel, 48 h", "key": {"[1]": {"system": "NCI-H23 lung"}, "[2]": {"system": "U251 CNS"}, "[3]": {"system": "NCI-H226 lung"}, "[4]": {"system": "HL-60(TB) leukemia"}, "[5]": {"system": "UO-31 renal"}, "[6]": {"system": "HOP-92 NSCLC"}, "[7]": {"system": "UACC-257 melanoma"}, "[8]": {"system": "786-0 renal"}, "[9]": {"system": "OVCAR-5 ovarian"}, "[10]": {"system": "RPMI-8226 leukemia"}}, "note": "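These data come from cells grown in 96-well plates and exposed to compound for 48 hours at five concentrations. TGI: concentration producing complete growth inhibition.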", "data": [{"smiles": "O=C1C(=O)C(CCCO)(CCCO)CCCCCCCCC1(CCCO)CCCO", "values": [{"measurement": "TGI", "setting": "[1]", "value": "> 100", "unit": "µM"}, {"measurement": "TGI", "setting": "[2]", "value": "> 100", "unit": "µM"}, {"measurement": "TGI", "setting": "[3]", "value": "> 100", "unit": "µM"}, {"measurement": "TGI", "setting": "[4]", "value": 29.9, "unit": "µM"}, {"measurement": "TGI", "setting": "[5]", "value": 60.4, "unit": "µM"}, {"measurement": "TGI", "setting": "[6]", "value": "> 100", "unit": "µM"}, {"measurement": "TGI", "setting": "[7]", "value": "> 100", "unit": "µM"}, {"measurement": "TGI", "setting": "[8]", "value": "> 100", "unit": "µM"}, {"measurement": "TGI", "setting": "[9]", "value": "> 100", "unit": "µM"}, {"measurement": "TGI", "setting": "[10]", "value": 32, "unit": "µM"}]}, {"smiles": "CN(CCc1ccccn1)C(=S)N/N=C/c1ccccn1", "values": [{"measurement": "TGI", "setting": "[1]", "value": 13.8, "unit": "µM"}, {"measurement": "TGI", "setting": "[2]", "value": "> 94.9", "unit": "µM"}, {"measurement": "TGI", "setting": "[3]", "value": 0.255, "unit": "µM"}, {"measurement": "TGI", "setting": "[4]", "value": "< 0.01", "unit": "µM"}, {"measurement": "TGI", "setting": "[5]", "value": 17.8, "unit": "µM"}, {"measurement": "TGI", "setting": "[6]", "value": 3.66, "unit": "µM"}, {"measurement": "TGI", "setting": "[7]", "value": 0.895, "unit": "µM"}, {"measurement": "TGI", "setting": "[8]", "value": "> 38.8", "unit": "µM"}, {"measurement": "TGI", "setting": "[9]", "value": 44.6, "unit": "µM"}, {"measurement": "TGI", "setting": "[10]", "value": 0.0424, "unit": "µM"}]}, {"smiles": "COc1cc(/C=C/C=C2\\CC(C)C/C(=C\\C=C\\c3ccc(O)c(OC)c3)C2=O)ccc1O", "note": "(stereo not given)", "values": [{"measurement": "TGI", "setting": "[1]", "value": 40.2, "unit": "µM"}, {"measurement": "TGI", "setting": "[2]", "value": 33, "unit": "µM"}, {"measurement": "TGI", "setting": "[3]", "value": 28, "unit": "µM"}, {"measurement": "TGI", "setting": "[4]", "value": 33.8, "unit": "µM"}, {"measurement": "TGI", "setting": "[5]", "value": 25.1, "unit": "µM"}, {"measurement": "TGI", "setting": "[6]", "value": 23.4, "unit": "µM"}, {"measurement": "TGI", "setting": "[7]", "value": 89.7, "unit": "µM"}, {"measurement": "TGI", "setting": "[8]", "value": 47.9, "unit": "µM"}, {"measurement": "TGI", "setting": "[9]", "value": 28.8, "unit": "µM"}, {"measurement": "TGI", "setting": "[10]", "value": 48.1, "unit": "µM"}]}, {"smiles": "CNc1ccc([N+](=O)[O-])cc1C(=O)N1CCC[C@H]1CO", "values": [{"measurement": "TGI", "setting": "[1]", "value": "> 100", "unit": "µM"}, {"measurement": "TGI", "setting": "[2]", "value": "> 100", "unit": "µM"}, {"measurement": "TGI", "setting": "[3]", "value": "> 100", "unit": "µM"}, {"measurement": "TGI", "setting": "[4]", "value": "> 100", "unit": "µM"}, {"measurement": "TGI", "setting": "[5]", "value": "> 100", "unit": "µM"}, {"measurement": "TGI", "setting": "[6]", "value": "> 100", "unit": "µM"}, {"measurement": "TGI", "setting": "[7]", "value": "> 100", "unit": "µM"}, {"measurement": "TGI", "setting": "[8]", "value": "> 100", "unit": "µM"}, {"measurement": "TGI", "setting": "[9]", "value": "> 100", "unit": "µM"}, {"measurement": "TGI", "setting": "[10]", "value": "> 100", "unit": "µM"}]}, {"smiles": "C1CN(C23OC4(N5CCOCC5)C5C6CC(C7C6C4C72)C53)CCO1", "note": "(stereo not given)", "values": [{"measurement": "TGI", "setting": "[1]", "value": "> 100", "unit": "µM"}, {"measurement": "TGI", "setting": "[2]", "value": "> 100", "unit": "µM"}, {"measurement": "TGI", "setting": "[3]", "value": "> 100", "unit": "µM"}, {"measurement": "TGI", "setting": "[4]", "value": "> 100", "unit": "µM"}, {"measurement": "TGI", "setting": "[5]", "value": "> 100", "unit": "µM"}, {"measurement": "TGI", "setting": "[6]", "value": "> 100", "unit": "µM"}, {"measurement": "TGI", "setting": "[7]", "value": "> 100", "unit": "µM"}, {"measurement": "TGI", "setting": "[8]", "value": "> 100", "unit": "µM"}, {"measurement": "TGI", "setting": "[9]", "value": "> 100", "unit": "µM"}, {"measurement": "TGI", "setting": "[10]", "value": "> 100", "unit": "µM"}]}, {"smiles": "Cc1cc(=O)[nH]c(S(=O)(=O)NC(=S)Nc2ccc(Br)cc2)n1", "values": [{"measurement": "TGI", "setting": "[1]", "value": "> 100", "unit": "µM"}, {"measurement": "TGI", "setting": "[2]", "value": "> 100", "unit": "µM"}, {"measurement": "TGI", "setting": "[3]", "value": "> 100", "unit": "µM"}, {"measurement": "TGI", "setting": "[4]", "value": "> 100", "unit": "µM"}, {"measurement": "TGI", "setting": "[5]", "value": "> 100", "unit": "µM"}, {"measurement": "TGI", "setting": "[6]", "value": "> 100", "unit": "µM"}, {"measurement": "TGI", "setting": "[7]", "value": "> 100", "unit": "µM"}, {"measurement": "TGI", "setting": "[8]", "value": "> 100", "unit": "µM"}, {"measurement": "TGI", "setting": "[9]", "value": "> 100", "unit": "µM"}, {"measurement": "TGI", "setting": "[10]", "value": "> 100", "unit": "µM"}]}]}
